# Measured values: patent publication US20250115595A1, “INHIBITORS OF HYPOXIA-INDUCIBLE FACTORS” (The Johns Hopkins University, priority 2021, published 2025)
# Experiments:
# Hepa1-6 HCC tumors = experiment: Hepa1-6 tumor growth in syngeneic C57L mice; format: in vivo, mouse; conditions: 32-134D 40 mg/kg/d intraperitoneal
# Experimental: To test whether 32-134D inhibits HCC growth in an immunocompetent mouse model, Hepa1-6 HCC cells were injected into the flank of syngeneic C57L mice (Darlington G J et al., J Natl Cancer Inst. 1980; 64(4):809-819). When tumors became palpable (treatment day 1), mice received daily intraperitoneal injections of 32-134D (40 mg/kg/d) versus vehicle control, or anti-Pd1 antibody versus IgG2a isotype control ([…] on days 1, 4, 7, 10, and 16), or both 32-134D and anti-Pd1. Tumors grew very rapidly in all mice treated with vehicle or IgG2a, necessitating euthanasia on or before day 24 (FIG. 9). Tumors regressed in 5 out of 12 mice treated with anti-Pd1, but two tumors recurred after the last antibody treatment (on day 16) for a tumor eradication rate of only 25%. […] Thus, addition of 32-134D increased the percentage of mice with a durable complete response to anti-Pd1 immune checkpoint blockade from 25% to 67%.
# Protocols were approved by the Johns Hopkins University Animal Care and Use Committee and used in accordance with the NIH Guide for the Care and Use of Laboratory Animals (National Research Council, 2011). Female nude mice (NCI Athymic NCr-nu/nu) and male C57L/J mice were purchased from Charles River and The Jackson Laboratory, respectively. Hep3B (8×106) and Hepa1-6 (1×107) cells were implanted subcutaneously in 6- to 8-week-old mice, and tumor volume was calculated: V=abc×0.52. […]
# HIF-1α and HIF-2α = experiment: HIF accumulation in hypoxic HUVECs; format: cell-based, human; conditions: 10 μM, 4 hours
# Source text: Vascular endothelial cells also secrete angiogenic mediators that contribute to the progression of diabetic eye disease (Y. Qin et al., Sci Adv 8, eabm1896 (2022)). Exposure of human umbilical vein endothelial cells (HUVECs) to hypoxia induced HIF-1α and HIF-2α protein accumulation, which was inhibited by 32-134D (FIG. 30). […] Of note, ANGPT2 and VE-PTP, two emerging targets for the treatment of diabetic eye disease, are both expressed specifically by vascular cells (G. Fachinger, et al., Oncogene 18, 5948-5953 (1999); P. C. Maisonpierre et al., Science 277, 55-60 (1997)).
# Cells culture and reagents: MIO-M1 cells were a gift from Dr. Astrid Limb (University College London, Institute of Ophthalmology, London, United Kingdom). MIO-M1 and HUVEC cells were cultured in DMEM with 10% (vol/vol) FBS (Quality Biological) and 1% penicillin/streptomycin (Cellgro). Hypoxia chambers were used to expose cells. Evans Blue (E2129) was purchased from Sigma-Aldrich.
# Immunoblot assays and ELISAs: Cell, neurosensory retina, and D120 retinal organoid lysates were subjected to 4-15% gradient SDS/PAGE (Invitrogen). Immunoblot assays were performed as previously described (X. Xin et al., 2013, Proc Natl Acad Sci USA 110, E3425-3434).
# [1] = test system: HIF-regulated vasoactive mediators; experiment: mRNA expression in hypoxic D120 hiPSC-derived retinal organoids; format: cell-based, human; conditions: 1% O2, 12 hours
# Experimental: To assess the therapeutic potential of 32-134D for diabetic patients, human induced pluripotent stem cell (hiPSC)-derived 3-dimensional (3D) retinal organoids were treated with 32-134D. It has been previously reported that hiPSC-derived 3D retinal organoids cultured under hypoxic conditions (1% O2) behave similar to ischemic human retinal tissue with increased accumulation of both HIF-1α and HIF-2α (J. Zhang et al., J Clin Invest 131 (2021)). By 120 days of differentiation (D120), the inner and outer retinal layers are clearly defined (FIGS. 32A and 32B) and contain the precursors of the major retinal cell types, including outer retina photoreceptors (expressing recoverin), few newly differentiating bipolar cell precursors (lacking expression of recoverin and Pax6), amacrine cells (expressing high levels of Pax6), as well as Müller cells (expressing CRALBP; FIGS. 32C and 32D). […]
# Reverse transcription and quantitative real-time PCR: Total RNA was isolated from cultured cells or retinas with PureLink™ RNA Mini Kit (Invitrogen #12183025), and cDNA was prepared with MuLV Reverse Transcriptase (Applied Biosystems). Quantitative real-time PCR was performed with Power SYBR Green PCR Master Mix (Applied Biosystems) and MyiQ Real-Time PCR Detection System (Bio-Rad). […]
structure (smiles),measurement,setting,value
"Brc1ccc2c(-c3csc(-c4c[nH]c5c(Br)cccc45)n3)c[nH]c2c1 [Compound 32-134D, 4-(6-bromo-1H-indol-3-yl)-2-(7-bromo-1H-indol-3-yl)thiazole]",mice with tumor eradication,Hepa1-6 HCC tumors,4 of 12
same,tumor growth,Hepa1-6 HCC tumors,marked inhibition of tumor growth in all mice
same,hypoxia-induced HIF-1α and HIF-2α protein accumulation,HIF-1α and HIF-2α,inhibited
same,"expression of HIF-regulated vasoactive mediators (Vegf, Angpt14 mRNA)",[1],effectively prevented
